Measured values: patent US20250205191A1, “R(-)-MDMA COMPOSITIONS AND METHODS OF TREATMENT” (EmpathBio, Inc., priority 2023, published 2025)

Assays:
[1] = Phase 1 clinical study, urine pharmacokinetics (urinalysis); type: in vivo, human
[2] = Phase 1 clinical study, plasma pharmacokinetics; conditions: for AUC0-t / Cmax / t1/2: mean (SD); for Tmax: median (minimum, maximum)
human 5-HT2A receptor = molecular target: T1, human 5-HT2A receptor (Homo sapiens, UniProt P28223); test: 5-HT2A agonism, inositol monophosphate accumulation (HTRF), CHO-K1 recombinant cells; type: cell-based; conditions: 5-HT2A
T1 construct: expressed in transfected cells; host or cells: CHO-K1

human 5-HT2B receptor = molecular target: T2, human 5-HT2B receptor (Homo sapiens, UniProt P41595); test: 5-HT2B agonism, inositol monophosphate accumulation (HTRF), CHO-K1 recombinant cells; type: cell-based; conditions: 5-HT2B
T2 construct: expressed in transfected cells; host or cells: CHO-K1

[3] = molecular target: T3, human 5-HT2C (non-edited) receptor (Homo sapiens, UniProt P28335); test: 5-HT2C (non-edited) agonism, inositol monophosphate accumulation (HTRF), CHO-K1 recombinant cells; type: cell-based; conditions: 5-HT2C (non-edited); relative to α-Me-5-HT at its EC100
T3 construct: expressed in transfected cells; host or cells: CHO-K1
T3 sequence (P28335 33-458): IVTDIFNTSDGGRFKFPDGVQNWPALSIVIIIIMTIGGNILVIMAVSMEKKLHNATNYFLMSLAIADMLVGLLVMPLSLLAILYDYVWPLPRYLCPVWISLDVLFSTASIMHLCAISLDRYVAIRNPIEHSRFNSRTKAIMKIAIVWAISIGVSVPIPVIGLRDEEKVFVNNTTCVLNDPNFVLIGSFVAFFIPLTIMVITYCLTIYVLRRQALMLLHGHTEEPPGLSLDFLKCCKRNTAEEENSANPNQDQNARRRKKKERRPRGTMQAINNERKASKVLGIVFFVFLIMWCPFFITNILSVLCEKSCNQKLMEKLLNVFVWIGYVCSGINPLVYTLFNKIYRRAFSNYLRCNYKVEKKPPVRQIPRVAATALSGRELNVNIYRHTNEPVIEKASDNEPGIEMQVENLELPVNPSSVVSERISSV

[4] = molecular target: T4, human 5-HT2C (edited) receptor (Homo sapiens, UniProt P28335); test: 5-HT2C (edited) agonism, inositol monophosphate accumulation (HTRF), CHO-K1 recombinant cells; type: cell-based; conditions: 5-HT2C (edited); relative to α-Me-5-HT at its EC100
T4 sequence (P28335 33-458): T3 sequence (P28335 33-458)

male C57BL/6J mice = test: Mouse extinction of fear learning assay; type: in vivo; conditions: 7.8 mg/kg IP once, vs vehicle
Description: Extinction of fear learning in rodents is a useful assay to understand if compounds have the potential to enhance learning processes that may be involved in recovery from SAD and other stress and anxiety related disorders, due to its resemblance to exposure-based therapy in humans. […] Freezing behavior, an indicator of the fear response, was measured in the presence of the CS during the extinction training session (Day 1) and the day after (Day 2, Extinction Testing, in the absence of test article). Locomotor activity was measured during the initial 2-minute habituation period, prior to the presentation of the CS, on Days 1 and 2.

healthy volunteers [5] = conditions: racemic MDMA at 125 mg, comparison in FIG. 11; cited from earlier work
healthy volunteers [6] = conditions: published report (Hysek et al., 2014); cited from earlier work
[7] = system: rat embryonic cortical neurons; test: In vitro rat cortical neurite outgrowth; type: cell-based; conditions: 250 nM positive control, vs vehicle
Description: The experiment included a 0.1% sterile water vehicle negative control condition and a 250 nM donepezil positive control condition, and the number of neurites per neuron, total neurite length per neuron and branchpoints per neuron from n=12 wells per treatment were compared to the vehicle control condition.

[8] = urine analyte after EMP-01 125 mg, Day 9
[9] = urine analyte after single oral 75 mg R(−)-MDMA, Day 1
[10] = urine analyte after single oral 125 mg R(−)-MDMA, Day 1
[11] = urine analyte after single oral 175 mg R(−)-MDMA, Day 1
[12] = urine analyte after single oral 225 mg R(−)-MDMA, Day 1
[13] = plasma analyte after oral 125 mg R(−)-MDMA, Day 9
[14] = plasma analyte after single oral 75 mg R(−)-MDMA, Day 1
[15] = plasma analyte after single oral 125 mg R(−)-MDMA, Day 1
[16] = plasma analyte after single oral 175 mg R(−)-MDMA, Day 1
[17] = plasma analyte after single oral 225 mg R(−)-MDMA, Day 1
[18] = relative to α-Me-5-HT at its EC100

T2 sequence (P41595 whole entry): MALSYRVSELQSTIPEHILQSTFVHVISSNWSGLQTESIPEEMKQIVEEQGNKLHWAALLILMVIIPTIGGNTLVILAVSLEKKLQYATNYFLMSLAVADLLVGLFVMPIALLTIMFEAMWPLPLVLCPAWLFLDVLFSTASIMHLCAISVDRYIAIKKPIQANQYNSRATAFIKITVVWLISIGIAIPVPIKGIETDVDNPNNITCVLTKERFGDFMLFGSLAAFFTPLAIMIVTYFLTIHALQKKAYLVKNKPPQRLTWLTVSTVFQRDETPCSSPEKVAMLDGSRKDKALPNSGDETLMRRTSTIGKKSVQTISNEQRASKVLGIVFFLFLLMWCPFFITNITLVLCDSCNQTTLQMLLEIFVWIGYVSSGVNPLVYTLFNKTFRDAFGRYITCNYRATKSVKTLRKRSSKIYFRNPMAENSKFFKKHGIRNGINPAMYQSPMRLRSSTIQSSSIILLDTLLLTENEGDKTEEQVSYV
T1 sequence (P28223 whole entry): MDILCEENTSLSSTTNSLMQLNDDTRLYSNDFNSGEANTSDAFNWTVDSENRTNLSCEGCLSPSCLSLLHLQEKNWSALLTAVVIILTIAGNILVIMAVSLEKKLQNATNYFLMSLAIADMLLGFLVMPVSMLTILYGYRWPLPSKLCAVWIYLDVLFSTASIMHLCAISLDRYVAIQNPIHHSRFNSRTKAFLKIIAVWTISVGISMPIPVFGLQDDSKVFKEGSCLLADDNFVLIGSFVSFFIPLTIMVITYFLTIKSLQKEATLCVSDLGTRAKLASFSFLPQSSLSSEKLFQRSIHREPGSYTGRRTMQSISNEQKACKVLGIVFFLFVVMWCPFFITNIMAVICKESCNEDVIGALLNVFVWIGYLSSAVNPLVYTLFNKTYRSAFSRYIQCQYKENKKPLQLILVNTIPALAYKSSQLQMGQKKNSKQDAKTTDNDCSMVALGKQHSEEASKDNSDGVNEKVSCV

C[C@@H](N)Cc1ccc2c(c1)OCO2 [R-MDA]
Ae12-24, amount excreted at the 12-24 hour collection interval [1, 8]: 0.9794 (0.8552) mg
CAe, cumulative amount of drug excreted [1, 8]: 0.9794 (0.8552) mg
CFe, cumulative fraction of drug excreted [1, 8]: 1.2746 (0.7265) %
CLr, renal clearance rate [1, 8]: 5.3793 (1.5400) L/h
Fe12-24, fraction of drug excreted at the 12-24 hour collection interval [1, 8]: 0.7835 (0.6842) %
Ae12-24, amount excreted at the 12-24 hour collection interval [1, 9]: 0.4622 (0.1101) mg
CAe, cumulative amount of drug excreted [1, 9]: 0.8510 (0.2149) mg
CFe, cumulative fraction of drug excreted [1, 9]: 1.1347 (0.2865) %
CLr, renal clearance rate [1, 9]: 4.6787 (0.8471) L/h
Fe12-24, fraction of drug excreted at the 12-24 hour collection interval [1, 9]: 0.6163 (0.1468) %
Ae12-24, amount excreted at the 12-24 hour collection interval [1, 10]: 0.7850 (0.4299) mg
CAe, cumulative amount of drug excreted [1, 10]: 1.1628 (0.4509) mg
CFe, cumulative fraction of drug excreted [1, 10]: 0.9302 (0.3608) %
CLr, renal clearance rate [1, 10]: 3.7173 (0.9547) L/h
Fe12-24, fraction of drug excreted at the 12-24 hour collection interval [1, 10]: 0.6280 (0.3440) %
Ae12-24, amount excreted at the 12-24 hour collection interval [1, 11]: 0.7076 (0.4510) mg
CAe, cumulative amount of drug excreted [1, 11]: 1.4788 (0.8740) mg
CFe, cumulative fraction of drug excreted [1, 11]: 0.8450 (0.4995) %
CLr, renal clearance rate [1, 11]: 4.3945 (2.1019) L/h
Fe12-24, fraction of drug excreted at the 12-24 hour collection interval [1, 11]: 0.4043 (0.2577) %
Ae12-24, amount excreted at the 12-24 hour collection interval [1, 12]: 0.8450 (0.4995) mg
CAe, cumulative amount of drug excreted [1, 12]: 1.9805 (0.8173) mg
CFe, cumulative fraction of drug excreted [1, 12]: 0.5432 (0.2708) %
CLr, renal clearance rate [1, 12]: 5.1337 (2.2871) L/h
Fe12-24, fraction of drug excreted at the 12-24 hour collection interval [1, 12]: 0.8802 (0.3633) %
time of peak of mean plasma concentration ([2]; metabolite after oral R(−)-MDMA): approximately 12 hours postdose
AUC0-t [2, 13]: 291.6730 (112.2988) h · ng/mL
Cmax [2, 13]: 13.3733 (2.3199) ng/mL
t1/2 [2, 13]: 143.1218 (145.7332) hr
Tmax [2, 13]: 12.042 (12.00, 30.00) hr
AUC0-t [2, 14]: 183.2765 (40.5712) h · ng/mL
Cmax [2, 14]: 7.6733 (1.6139) ng/mL
t1/2 [2, 14]: 39.0473 (19.0557) hr
Tmax [2, 14]: 12.000 (10.00, 12.00) hr
AUC0-t [2, 15]: 307.4702 (66.2889) h · ng/mL
Cmax [2, 15]: 12.7950 (3.1122) ng/mL
Tmax [2, 15]: 12.025 (12.00, 30.03) hr
AUC0-t [2, 16]: 272.6761 (57.5614) h · ng/mL
Cmax [2, 16]: 11.2820 (2.1914) ng/mL
Tmax [2, 16]: 18.000 (12.00, 18.00) hr
AUC0-t [2, 17]: 413.2388 (193.5541) h · ng/mL
Tmax [2, 17]: 21.050 (18.00, 30.00) hr

CNC(C)Cc1ccc2c(c1)OCO2 (racemic) [Racemic MDMA, 3,4-methylenedioxymethamphetamine, reference compound]
EC50 (human 5-HT2A receptor; CHO-K1, IP accumulation): 4730 nM
Efficacy (% of a-Me-5-HT response) (human 5-HT2A receptor; [18]): 68.4%
EC50 (human 5-HT2B receptor; CHO-K1, IP accumulation): 194 nM
Efficacy (% of a-Me-5-HT response) (human 5-HT2B receptor; [18]): 91.2%
Efficacy (% of a-Me-5-HT response) [3]: 95.3%
Efficacy (% of a-Me-5-HT response) [4]: 97.7%
freezing behavior (male C57BL/6J mice; 30 min prior to extinction training): significantly reduced freezing behavior on Days 1 and 2
locomotor activity (male C57BL/6J mice): increased locomotor activity on Days 1 and 2
11D-ASC response profile (healthy volunteers [5]): no visual hallucinations and little to no insight
reduction of bias to angry faces (healthy volunteers [6]): 12.5%

COc1cc2c(cc1OC)C(=O)C(CC1CCN(Cc3ccccc3)CC1)C2 (stereo not shown) [Donepezil, reference compound]
branchpoints per neuron [7]: significantly and robustly increased
number of neurites per neuron [7]: significantly and robustly increased
total neurite length per neuron [7]: significantly and robustly increased
